Assay results as given in PMC4307180, “Overcoming myelosuppression due to synthetic lethal toxicity for FLT3-targeted acute myeloid leukemia therapy” (eLife, 2014).
“Also recorded” adds a separate entry of the source. Where two headings read alike, the source gives them in different places.

How the values were obtained:
[1] = system: AML patients; parameters: method as in Cortes et al., 2013; conditions: monotherapy, Phase II trial; ref Cortes et al., 2013; cited from earlier work
[2] = system: Ba/F3 Parental + IL3; experiment: Ba/F3 cell viability, Parental + IL3; type: cell-based; conditions: Mus musculus, BaF3; Ba/F3, 48 hr, ± SEM
Method: (§1) Stable Ba/F3 lines were generated by retroviral spinfection with the appropriate mutated plasmid as previously described ([Smith et al., 2012]).
(§2) Exponentially growing cells (5 × 10^3 cells per well) were plated in each well of a 96-well plate with 0.1 ml of RPMI 1640 + 10% (vol/vol) FCS containing the appropriate concentration of drug in triplicate, and cell viability was assessed after 48 hr as previously described ([Smith et al., 2012]). […] Log10-scale transformation of ratios, followed by conditional formatting using xcel spreadsheet software yielded the colored diagrams shown.

[3] = system: AML patients; parameters: method as in Strati et al., 2014; conditions: ref Strati et al., 2014, cited from earlier work
[4] = system: HMC1.1 cells; experiment: Caspase-3 activation (apoptosis), HMC1.1; type: cell-based, human; conditions: 48 hr, up to 2,500 nM
Method: Cells were fixed with 4% (vol/vol) paraformaldehyde (Electron Microscopy Sciences) and permeabilized with 100% (vol/vol) methanol (Electron Microscopy Sciences, Hatfield, PA) followed by staining with a FITC-conjugated antiactive caspase-3 antibody (BD Pharmingen, San Jose, CA). Cells were run on a BD LSRFortessa cell analyzer, and data were analyzed using FlowJo (Tree Star Inc., Ashland, OR). Percentage of live cells was determined by negative staining for activated caspase-3 (see Figure 2B,C).

[5] = system: FLT3/ITD-injected zebrafish embryos; experiment: Zebrafish FLT3/ITD-induced mpo+ myeloid cell expansion; type: in vivo, Danio rerio (zebrafish); conditions: 10 μM, 6 to 30 hpf, read at 30 hpf
Method: (§3) Figure 4. […] (N–P) Three categories of mpo transcription (N, normal; O, intermediate; P, severe) were defined based on the WISH results (three experiments). […] Scale bar equals 500 μm. Blue arrows indicate the pericardial edema, green arrows indicate tail shortening and curving, and red arrows indicate the FLT3-ITD AML mpo+ myeloid cells expansion. […] For all experiments: Zebrafish embryos were collected and kept in standard E3 medium at 28°C. Different concentrations of either drug were added to the E3 medium from 6 hr post fertilization (hpf) to 3 days post fertilization (dpf). Embryos treated with DMSO or 10 μM drug from 6 to 30 hpf were collected for mpo whole mount in situ hybridization (WISH) analysis. […] plasmid DNA containing FLT3/ITD sequence was microinjected into one-cell stage embryos, and the uninjected embryos were used as control. FLT3/ITD-injected embryos were treated with DMSO or 10 μM drug from 6 to 30 hpf.
(§4) Wild-type (WT) zebrafish were maintained under standard conditions, and embryos were staged as described ([He et al., 2014]). The study was approved by the Committee of the Use of Live Animals for Teaching and Research in The University of Hong Kong.

[6] = system: Ba/F3 FLT3 ITD + D835F; experiment: Ba/F3 cell viability, FLT3 ITD + D835F; type: cell-based; conditions: Mus musculus, Ba/F3, 48 hr, ± SEM
Method: as §1, §2
(§5) Mutations isolated in the screen were engineered into pMSCVpuroFLT3–ITD by QuikChange mutagenesis (Stratagene, La Jolla, CA) as previously described ([Smith et al., 2012]).

[7] = system: primary patient FLT3 D835 AML circulating blasts; experiment: Colony-forming assay, primary patient FLT3-D835 AML blasts; type: cell-based, human; conditions: at 1,000 nM; ca. 120 for DMSO plates
Text: (§6) Primary AML blood samples and/or marrow aspirates were obtained on an IRB-approved protocol at the University of California, San Francisco. Informed consent was obtained in accordance with the Declaration of Helsinki. Mononuclear cells were purified by density centrifugation (Ficoll–Paque Plus, GE Healthsciences) before cryopreservation in 10% (vol/vol) DMSO or FCS (primary ITD and D835-mutant assays, Figure 3A–C) or immediate use in assays (Normal BM and SPB, Figure 3D–F). Normal BM and stimulated peripheral blood (SPB) samples were collected from donors at the UCSF oncology/hematology division. Cells were then suspended in MethoCult methylcellulose (Stem Cell Technologies, product no. H4435 Enriched, Canada) in 15-ml Falcon tubes, vigorously vortexed, bubbles settled over 10 min. Triplicates then plated via blunt-nosed syringe (1.1 ml each) into 3-cm dishes, avoiding bubble generation, and each dish placed in a larger 10-cm dish with water trough in an incubator (37°C, 5% CO2) for 13–14 days. Colonies were counted individually using traditional microscopy. CFU and BFU types reported separately (CFU-GEMM colonies counted as one of each).

[8] = system: MV4;11 cells (FLT3-ITD homozygous); experiment: Cell proliferation/viability assay, MV4;11; type: cell-based; conditions: Homo sapiens, 48 hr, ± SEM
Method: as §2

[9] = system: normal bone marrow (BM) and stimulated peripheral blood (SPB) hematopoietic progenitors; experiment: Colony-forming assay, normal BM and stimulated peripheral blood; type: cell-based, human
Text: as §6, with “each). Results shown for FLT3 ITD primary blasts (Figure 3B) are a combination of leukemic blast colonies and BFU colonies.” for “each).”

[10] = molecular target: T1, p-KIT in HMC1.1 cells (Homo sapiens, UniProt P10721, V560G); experiment: Immunoblot of p-KIT in HMC1.1; type: cell-based; conditions: immunoblot, 90-min incubation
T1 construct: endogenous in cells; host or cells: HMC1.1

[11] = system: zebrafish embryos; experiment: Zebrafish embryonic development / WT morphology; type: in vivo, Danio rerio (zebrafish); conditions: 3 dpf, drug from 6 hpf
Method: as §3, §4

[12] = system: primary patient FLT3-ITD+ AML circulating blasts; experiment: Colony-forming assay, primary patient FLT3-ITD+ AML blasts; type: cell-based, human; conditions: at 1,000 nM; ca. 1,200 CFUs in DMSO plates
Text: as §6

[13] = system: Ba/F3 FLT3 ITD + A848P; experiment: Ba/F3 cell viability, FLT3 ITD + A848P; type: cell-based; conditions: Mus musculus, Ba/F3, 48 hr, ± SEM
Method: as §1, §2, §5

[14] = system: mpo+ myeloid cells in zebrafish embryos; experiment: Zebrafish normal myelopoiesis, mpo WISH in posterior blood island; type: in vivo, Danio rerio (zebrafish); conditions: 10 μM, 6 to 30 hpf, read at 30 hpf, vs DMSO
Method: as §3, §4

[15] = system: HMC1.1 cells (KIT V560G); experiment: Cell proliferation/viability assay, HMC1.1; type: cell-based, human; conditions: Homo sapiens; Kit V560 G, 48 hr, ± SEM
Method: as §2

T1 sequence (P10721 26-976 V560G): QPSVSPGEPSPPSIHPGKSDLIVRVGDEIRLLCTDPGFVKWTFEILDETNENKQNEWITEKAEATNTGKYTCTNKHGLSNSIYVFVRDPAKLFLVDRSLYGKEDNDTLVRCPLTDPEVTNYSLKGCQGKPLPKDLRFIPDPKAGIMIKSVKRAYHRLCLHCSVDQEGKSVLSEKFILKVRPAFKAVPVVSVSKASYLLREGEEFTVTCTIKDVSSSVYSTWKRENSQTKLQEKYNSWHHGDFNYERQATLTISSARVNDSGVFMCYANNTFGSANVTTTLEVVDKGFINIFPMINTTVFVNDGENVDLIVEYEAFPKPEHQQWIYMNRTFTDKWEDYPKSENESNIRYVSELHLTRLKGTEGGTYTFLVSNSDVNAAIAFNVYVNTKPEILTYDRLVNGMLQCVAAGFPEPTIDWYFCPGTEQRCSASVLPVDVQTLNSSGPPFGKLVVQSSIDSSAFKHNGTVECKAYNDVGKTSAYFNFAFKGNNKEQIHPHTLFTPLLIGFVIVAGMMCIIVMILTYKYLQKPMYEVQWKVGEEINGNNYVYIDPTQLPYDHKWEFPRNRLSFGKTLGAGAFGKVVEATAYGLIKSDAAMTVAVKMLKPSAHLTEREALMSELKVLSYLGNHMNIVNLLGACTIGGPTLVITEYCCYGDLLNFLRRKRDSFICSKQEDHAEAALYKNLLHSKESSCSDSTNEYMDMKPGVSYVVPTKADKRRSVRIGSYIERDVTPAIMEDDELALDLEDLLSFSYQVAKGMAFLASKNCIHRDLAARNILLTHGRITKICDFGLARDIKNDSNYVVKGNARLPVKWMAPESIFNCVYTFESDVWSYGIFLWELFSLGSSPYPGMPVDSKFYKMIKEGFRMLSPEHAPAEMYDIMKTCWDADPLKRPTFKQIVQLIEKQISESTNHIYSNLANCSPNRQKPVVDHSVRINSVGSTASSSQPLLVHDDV

SMILES | CR rate [1] [%] | CRi rate [1] [%] | IC50 [2] [nM] | CR rate ([3]; combined with cytotoxic agents) [%] | incomplete recovery of peripheral blood counts (CRi) rate ([3]; combined with cytotoxic agents) [%] | patients developing grade 3/4 myelosuppression ([3]; combined with cytotoxic agents) | complete remission (CR), single agent ([3]; single agent Phase II trial) | apoptosis/toxicity (caspase-3) in KIT-addicted HMC1.1 cells [4] | effect on FLT3/ITD-induced mpo+ myeloid cells expansion [5] | IC50 [6] [nM] | raw colony numbers, FLT3 D835Y blasts [7] | IC50 [8] [nM] | raw colony numbers, normal BM ([9]; at 1,000 nM) | effect on normal hematopoietic colony formation (CFU and BFU) ([9]; normal BM and SPB donors, up to 1,000 nM) | p-KIT and downstream signaling inhibition in HMC1.1 cells [10] | effect on zebrafish embryonic development / morphology [11] | raw colony numbers, FLT3-ITD+ blasts [12] | IC50 [13] [nM] | effect on mpo+ myeloid cells development in the PBI [14] | IC50 [15] [nM]
CC(C)(C)c1cc(NC(=O)Nc2ccc(-c3cn4c(n3)sc3cc(OCCN5CCOCC5)ccc34)cc2)no1.Cl.Cl [AC220, N-(5-tert-Butyl-isoxazol-3-yl)-N'-{4-[7-(2-morpholin-4-yl-ethoxy)imidazo[2,1-b][1,3]benzothiazol-2-yl]phenyl}urea Dihydrochloride] | 50 | 45 |  |  |  |  |  |  |  |  |  |  |  |  |  |  |  |  |  | 
CO[C@@H]1[C@H](N(C)C(=O)c2ccccc2)C[C@H]2O[C@]1(C)n1c3ccccc3c3c4c(c5c6ccccc6n2c5c31)C(=O)NC4 [PKC412, N-benzoylstaurosporine, reference compound] |  |  | 243 ± 73 | 25 | 20 | over 90% | failed to achieve a single complete remission | potent toxicity | efficaciousness similar to Star 27 | 9 ± 3 | ca. 25 | 16 ± 5 | zero in most PKC412-treated replicates | eliminates most normal hematopoietic colony forming potential at 1 mM; also recorded: dose-dependent inhibition of colony formation | inhibited p-KIT and downstream signaling to a greater degree | substantial morphological defects to the heart at 1 μM | ca. 20 | 9 ± 6 | statistically significant granulogenesis/myelosuppression; also recorded: statistically significant suppression of myelopoiesis | 354 ± 60
